Data: patent US20240368163A1, “COMPOUNDS AND METHODS FOR MODULATING SPLICING” (REMIX THERAPEUTICS INC., priority 2021, published 2024)
Like-named read-outs stand apart in the source and are kept apart here.

Experiments:
[1] = Transwell assay for membrane efflux and permeability; format: in vitro ADME, Canine; details: dog; MDCK-BCRP or MDCKII-MDR1 transwell, test compound 1 μM, 2 hours at 37° C.
From the text: Compounds described herein were screened for cell membrane permeability and efflux in a transwell assay using Madin-Darby Canine Kidney (MDCK) cells expressing Breast Cancer Resistance Protein (BCRP) or subclone MDCKII cells expressing Multidrug Resistance Protein 1 (MDR1).
MDCK-BCRP or MDCKII-MDR1 Cells: The Netherlands Cancer Institute, High Glucose Dulbecco's Modified Eagle's Medium (DMEM): Gibco/Thermo Fisher Scientific, Fetal Bovine Serum (FBS): Coming, Hank's Balanced Salt Solution (HBSS) and Trypsin/EDTA: Gibco/Thermo Fisher Scientific, HTS Transwell-96 Well Permeable Supports: Coming Corporation, Millicell Epithelial Volt-Ohm: Millipore, Cellometer® Vision: Nexcelom Bioscience LLC, Infinite 200 PRO microplate reader: Tecan, MTS2/4 orbital shaker: IKA Labortechnik, HEPES/Penicillin/Streptomycin: Solarbio.
MDCK-BCRP or MDCKII-MDR1 cells were seeded to each of the wells of the transwell plate at a density of 1.6×10^6 cells/mL and the plate was incubated for 4-8 days with medium changes every two days. To perform the drug transport assay, cell monolayers were first washed three times with pre-warmed HBSS and then incubated with gentle shaking (150 rpm) for 30 min at 37° C. Stock solutions of test compounds (e.g., exemplary compounds of Formulas (I), (II), and (III)) and control compounds (e.g., metoprolol, prazosin, and/or imatinib) were prepared in DMSO and adjusted to a working solution using HBSS. The final concentration of test compounds was 1 μM with DMSO; 0.5%. The plates were incubated at 37° C. for 2 hours.

[2] = tested on: MYB; experiment: Splicing RT-qPCR assay, MYB mRNA canonical junction (CJ) and alternative junction (AJ); format: cell-based, human; details: for AC50: increase in AJ mRNA
Summary of the method: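 Splice switching is measured in A673 or K562 cells after 24 h compound exposure (maximum 10 uM, 3-fold steps). Canonical and alternative junction mRNA levels are quantified by RT-qPCR relative to housekeeper and DMSO.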

[3] = Homo sapiens, 24 h, decrease in CJ mRNA, A673 or K562 cells, 24 hours treatment, RT-qPCR, read-out: MYB CJ IC50
[4] = Homo sapiens, 24 h, A673 or K562 cells, 24 hours treatment, RT-qPCR
[5] = Homo sapiens, RT-qPCR panel, canonical junction mRNA, compound concentration having 50% response in CJ decrease, read-out: MYB IC50 (decrease in CJ mRNA levels)

Structure (SMILES) | Papp at 2 h, 1 μM [1] | efflux ratio at 2 h, 1 μM [1] | IC50 [2, 3] | AC50 [2, 4] | IC50 [2, 5] | IC50 ([2]; RT-qPCR panel, canonical junction mRNA, compound concentration having 50% response in CJ decrease, read-out: MYB IC50 (decrease in CJ mRNA levels)) | IC50 ([2]; decrease in CJ mRNA, A673 or K562 cells, 24 hours treatment, RT-qPCR, read-out: MYB CJ IC50)
[2H]C([2H])([2H])N(c1ccc(-c2ccc(-c3cn[nH]c3)c3ncsc23)nn1)[C@@H]1C[C@H]2CC[C@@H](C1)N2 [Compound 210] | < 2 ×10⁻⁶ cm/s | > 5 | < 100 nM | < 100 nM | < 100 nM | – | –
CN(c1ccc(-c2ccc(-c3cn[nH]c3)c3ncsc23)nn1)[C@@H]1C[C@H]2CC[C@@H](C1)N2 [Compound 213] | < 2 ×10⁻⁶ cm/s | > 5 | 100 to 1000 nM | 100 to 1000 nM | 100 to 1000 nM | – | –
c1nc2c(-c3cn[nH]c3)ccc(-c3ccc(N[C@@H]4C[C@H]5CCC[C@@H](C4)N5)nn3)c2s1 [Compound 215] | < 2 ×10⁻⁶ cm/s | > 5 | 100 to 1000 nM | < 100 nM | 100 to 1000 nM | – | –
Fc1cc(-c2ccc(O[C@@H]3C[C@H]4CC[C@@H](C3)N4)nn2)c2[nH]ncc2c1-c1cn[nH]c1 [Compound 216] | < 2 ×10⁻⁶ cm/s | > 5 | 100 to 1000 nM | < 100 nM | 100 to 1000 nM | – | –
CN(c1ccc(-c2ccc(-c3cn[nH]c3)c3ncsc23)nn1)[C@@H]1C[C@H]2CCC[C@@H](C1)N2 [Compound 226] | < 2 ×10⁻⁶ cm/s | > 5 | < 100 nM | < 100 nM | < 100 nM | – | –
[2H]C([2H])([2H])N(c1ccc(-c2ccc(-c3cn[nH]c3)c3ncsc23)nn1)[C@@H]1C[C@H]2CCC[C@@H](C1)N2 [Compound 227] | < 2 ×10⁻⁶ cm/s | > 5 | < 100 nM | < 100 nM | < 100 nM | – | –
CCN(c1ccc(-c2ccc(-c3cn[nH]c3)c3ncsc23)nn1)[C@@H]1C[C@H]2CCC[C@@H](C1)N2 [Compound 228] | < 2 ×10⁻⁶ cm/s | > 5 | 100 to 1000 nM | 100 to 1000 nM | 100 to 1000 nM | – | –
CN(c1ccc(-c2ccc(-c3cnn(C)c3)c3cn[nH]c23)nn1)C1CCNCC1 [Compound 242] | < 2 ×10⁻⁶ cm/s | > 5 | > 10000 nM | > 10000 nM | > 10000 nM | – | –
CN(c1ccc(-c2cc(F)c(-c3cnn(C)c3)c3cn[nH]c23)nn1)[C@@H]1C[C@H]2CC[C@@H](C1)N2 [Compound 291] | < 2 ×10⁻⁶ cm/s | > 5 | < 100 nM | < 100 nM | < 100 nM | – | –
c1n[nH]cc1-c1ccc(-c2ccc(N[C@@H]3C[C@H]4CCC[C@@H](C3)N4)nn2)c2[nH]ncc12 [Compound 294] | < 2 ×10⁻⁶ cm/s | 1.5 to 5 | 100 to 1000 nM | 100 to 1000 nM | 100 to 1000 nM | – | –
CC1(C)CC(Oc2ccc(-c3cc(F)c(-c4cn[nH]c4)c4cn[nH]c34)nn2)CC(C)(C)N1 [Compound 307] | 2 to 6 ×10⁻⁶ cm/s | > 5 | 100 to 1000 nM | 1000 to 10000 nM | 100 to 1000 nM | – | –
c1nc2c(-c3cn[nH]c3)ccc(-c3ccc(N(C4CC4)C4C[C@H]5CCC[C@@H](C4)N5)nn3)c2s1 (some centres unmarked) [Compound 311] | < 2 ×10⁻⁶ cm/s | > 5 | 100 to 1000 nM | 100 to 1000 nM | 100 to 1000 nM | – | –
Fc1cc(-c2ccc(OC3CC4CC(F)(F)C(C3)N4)nn2)c2[nH]ncc2c1-c1cn[nH]c1 (centres unmarked) [Compound 313, 7-[6-({6,6-difluoro-8-azabicyclo[3.2.1]octan-3-yl}oxy)pyridazin-3-yl]-5-fluoro-4-(1H-pyrazol-4-yl)-1H-indazole] | – | < 1.5 | 100 to 1000 nM | 100 to 1000 nM | 100 to 1000 nM | – | –
Fc1cc(-c2ccc(O[C@@H]3C[C@H]4CC[C@@H](C3)N4)nn2)c2sncc2c1-c1cn[nH]c1 [Compound 327] | 2 to 6 ×10⁻⁶ cm/s | > 5 | < 100 nM | < 100 nM | < 100 nM | – | –
CN(c1ccc(-c2ccc(-c3cn[nH]c3)c3ncsc23)nn1)[C@H]1C[C@H]2COC[C@@H](C1)N2 [Compound 356, (endo)-N-methyl-N-{6-[4-(1H-pyrazol-4-yl)-1,3-benzothiazol-7-yl]pyridazin-3-yl}-3-oxa-9-azabicyclo[3.3.1]nonan-7-amine] | – | – | – | – | – | 100 to 1000 nM | 100 to 1000 nM
